Laboratory results as given in patent US20250027041A1, “COMPOSITION FOR INDUCING TRANSDIFFERENTIATION AND STEM CELLS TREATED THEREWITH” (YJ CERAPEUTICS INC., priority 2021, published 2025).

Tests used:
human UCB-MSCs = assay: Tuj1 immunochemical assay with CtBP inhibitors; type: cell-based; details: 30 μM, 5 days
Procedure: To determine CtBP1-mediated ciNSC5 differentiation by YJ102 in human UCB-MSCs, a CTBP1 mechanism by treatment with NSC95397 or 4-methylthio-2-oxobutanoate (MTOB) was analyzed by immunochemical assay. Specifically, UCB-MSCs were dispensed at 2.1×10^4 cells/well in a 12-well plate containing an 18 mm cover glass (circular) (a DMSO control group was dispensed at 3.5×10^3 cells/well). […] The culture medium was removed, washed with PBS, and fixed with 4% paraformaldehyde at room temperature for 10 minutes. After washed three times with PBS, the cells were permeabilized with PBS-T containing 0.5% Triton X-100 for 10 minutes, washed with PBS-T three times for 10 minutes each, and then blocked with a blocking solution (PBS-T containing 5% BSA and 5% goat serum) for 1 hour. Thereafter, the cells were treated with anti-Tuj1 antibody (Cat. 801201, BioLegend) diluted 1/5000 in a blocking solution and incubated at 4° C. overnight. The next day, the cells were washed 10 times for 10 minutes each with PBS-T, and then treated with anti-mouse IgG-cy3 (Cat. 111-165-003, Jackson ImmunoResearch) diluted 1/2000 in a blocking solution, and incubated for 1 hour in dark conditions. Next, the cells were washed 10 times for 10 minutes each with PBS-T, mounted with a mounting solution containing DAPI, and then observed with a confocal microscope.

UCB-MSCs = assay: Tuj1 immunochemical assay, direct conversion of UCB-MSCs into ciNSC5; type: cell-based, human; details: 30 μM, 5 days
Procedure: Immunochemical assay was performed to confirm whether UCB-MSCs were transdifferentiated into ciNSC5, Tuj1-positive neural progenitor cells, by the compounds of the present invention, YJ101, YJ102, and YJ103. Specifically, UCB-MSCs were dispensed at 2.1×10^4 cells/well in a 12-well plate containing an 18 mm cover glass (a DMSO control group was dispensed at 3.5×10^3 cells/well). […] The culture medium was removed, washed with PBS, and then fixed with 4% paraformaldehyde at room temperature for 10 minutes. After washed three times with PBS, the cells were permeabilized with PBS-T containing 0.5% Triton X-100 for 10 minutes, washed with PBS-T three times for 10 minutes each, and then blocked with a blocking solution (PBS-T containing 5% BSA and 5% goat serum) for 1 hour. Thereafter, the cells were treated with anti-Tuj1 antibody (Cat. 801201, BioLegend) diluted 1/5000 in a blocking solution and incubated at 4° C. overnight. The next day, the cells were washed 10 times for 10 minutes each with PBS-T, and then treated with anti-mouse IgG-FITC diluted 1/500 in a blocking solution, and incubated for 1 hour in dark conditions. Next, the cells were washed 10 times for 10 minutes each with PBS-T, mounted with a mounting solution containing DAPI, and then observed with a confocal microscope.

CtBP1 = CtBP1 (Homo sapiens, UniProt Q13363); assay: Immunoprecipitation, CtBP1 oligomerization in UCB-MSCs; type: cell-based; design: expressed in transfected cells; host or cells: human UCB-MSC; details: YJ102 20 μM; FLAG-CtBP1 + HA-CtBP1, 48 hours
Procedure: To determine the effect of YJ102 on the regulation of oligomerization of C-terminal Binding Proteins (CtBPs) in human UCB-MSCs, immunoprecipitation analysis was performed. Specifically, UCB-MSCs were dispensed at 4×10^5 cells/ml in a 60 mm culture dish, and the next day, FLAG-CtBP1, HA-CtBP1, FLAG-CtBP2, and HA-CtBP1 were transfected into cells using 4 μl jetPRIME. Thereafter, the cells were treated with YJ102 (stock 30 mM in DMSO) and MTOB (stock 300 mM in DMSO) at 20 μM and 300 μM, respectively (Table 1). After 48 hours of transfection, proteins were extracted in the same manner as in Example 1-1. Protein G agarose slurry was washed with PBS and blocked with 1 ml of 1% BSA, washed with PBS, and added with 1 μg of anti-HA antibody diluted with 1.5 ml of PBS and incubated at 4° C. for 2 hours. Thereafter, the cells were centrifuged at 3,000×g for 2 minutes to remove the supernatant, washed with an IP150 buffer two times, added with 1 μg of the protein extracted above, and incubated at 4° C. overnight. After incubation, the cells were centrifuged at 3,000×g for 2 minutes to remove the supernatant, washed with PBS three times, added with 50 μl of 1 mg/ml HA peptide diluted with PBS, and incubated at room temperature for 10 minutes. […]

SMILES: CCc1ccc(N(C(=O)COC)c2nc3cc(Cl)ccc3o2)cc1 [YJ102]
- differentiation of UCB-MSCs into ciNSC5 through CtBP1 regulation (human UCB-MSCs): differentiated UCB-MSCs into ciNSC5
- direct conversion from UCB-MSCs to ciNSC5 (UCB-MSCs): induced direct conversion
- expression of Tuj1 (UCB-MSCs; UCB-MSC): increased
- oligomerization of CtBP1 (CtBP1): induced oligomerization
